Measured values taken from patent US8173682B2, “Substituted pyridones as inhibitors of poly(ADP-ribose) polymerase (PARP)” (Aventis Pharmaceuticals Inc., priority 2004, dated 2012).
Counter-ions that a name gives are not always drawn.

Molecular target: T1, recombinant human PARP (PARP1) (Homo sapiens, UniProt P09874)
T1 construct: Full length human PARP (PARP1) is assembled from PCR fragments; His6 tag with TEV site, from the pFastBac-HTb vector (own knowledge of the vector); made in house; host or cells: insect cells, baculovirus (Bac-to-Bac, Gibco-BRL)
Experiment: PARP enzyme assay, Method A (radioactivity or 'ELISA' enzyme assay with partially purified enzyme)
Format: biochemical
Details: recombinant human PARP preparation, radioactive or ELISA enzyme assay
Description: Two different methods are employed in determining the activity of the compounds of this invention in inhibiting the activity of PARP enzyme, designated as Method A and Method B respectively as set forth below.
Method A: Cloning and Expression, and Partial Purification of Recombinant Human PARP:
Full length human PARP (PARP1) is assembled from PCR fragments of a clone from a human brain cDNA library and two Incyte clones. The PARP gene (3046 bp) is sub-cloned into pFastBac-HTb vector to give PARP-pFastBac-HTb and the sequence of this clone is verified. PARP-pFastBac-HTb is expressed to obtain protein using the Bac-to-Bac expression protocol from Gibco-BRL. The recombinant virus generated is used to scale up the material for purification.
Cell pellets from cell broth of cells expressing PARP are treated with a cocktail of protease inhibitors and lysed by 4 freeze-thaw cycles. The material is suspended in 10 mM HEPES/0.1M NaCl/pH 7.2, stirred, and then centrifuged. A 40%-70% ammonium sulfate cut of protein pellet is obtained from the supernatant. The pellet is solubilized in 10 mM HEPES/pH 7.2 and centrifuged. The supernatant buffer is exchanged to 10 mM HEPES/pH 7.2/0.1M NaCl/25% glycerol by dialysis or with a desalting column. The enzyme preparation is stored at −20° C. until use.
The compounds of this invention are then tested with this enzyme preparation using either the radioactive enzyme assay or by the “ELISA” enzyme assay as set forth below.
Radioactivity Enzyme Assay:
Incorporation of radioactivity from labeled NAD into acid-precipitated protein is measured. The reaction mixture (volume 100 μL or 50 μL, in a test-tube or 96-well plate) contained 100 μg/mL calf thymus DNA (sonicated), 100 μg/mL histones, 100 mM Tris (pH 8.0), 1.0 mM DTT, 10 mM MgCl2, NAD (200 μM, 0.65 microcurie/mL), and varying amounts of enzyme. The reaction was incubated for 10 min at 37° C. or at room temperature for 60 min. The reaction was stopped and protein precipitated by addition of ice-cold trichloroacetic acid (TCA; 10% or 20% aqueous w/v). After brief storage in ice or at 4° C. for 2 hrs, the reaction mixture is filtered under vacuum through a glass fiber filter (2.5 cm disc, or 96-well filter plate). After washing with TCA and ethanol, the filter is dried and counted for tritium CPM after addition of scintillation fluid.
Incorporation of biotin-NAD into histone coated on plate is measured. A 96-well protein-binding EIA plate is coated with histone and blocked with bovine serum albumin. The reaction mixture (50 μL) contained DNA, buffer, enzyme, (test compound), and 250 μM of NAD and 5 μL of biotin-NAD (Trevigen). After reaction at room temperature the wells are washed and treated with Extravidin (Sigma). After incubation and washing color is developed with the peroxidase substrate TMB (Sigma). The TMB reaction is quenched with 2M sulfuric acid and the absorbance at 450 nm is read.

T1 sequence (P09874 whole entry, the tested form may be a part): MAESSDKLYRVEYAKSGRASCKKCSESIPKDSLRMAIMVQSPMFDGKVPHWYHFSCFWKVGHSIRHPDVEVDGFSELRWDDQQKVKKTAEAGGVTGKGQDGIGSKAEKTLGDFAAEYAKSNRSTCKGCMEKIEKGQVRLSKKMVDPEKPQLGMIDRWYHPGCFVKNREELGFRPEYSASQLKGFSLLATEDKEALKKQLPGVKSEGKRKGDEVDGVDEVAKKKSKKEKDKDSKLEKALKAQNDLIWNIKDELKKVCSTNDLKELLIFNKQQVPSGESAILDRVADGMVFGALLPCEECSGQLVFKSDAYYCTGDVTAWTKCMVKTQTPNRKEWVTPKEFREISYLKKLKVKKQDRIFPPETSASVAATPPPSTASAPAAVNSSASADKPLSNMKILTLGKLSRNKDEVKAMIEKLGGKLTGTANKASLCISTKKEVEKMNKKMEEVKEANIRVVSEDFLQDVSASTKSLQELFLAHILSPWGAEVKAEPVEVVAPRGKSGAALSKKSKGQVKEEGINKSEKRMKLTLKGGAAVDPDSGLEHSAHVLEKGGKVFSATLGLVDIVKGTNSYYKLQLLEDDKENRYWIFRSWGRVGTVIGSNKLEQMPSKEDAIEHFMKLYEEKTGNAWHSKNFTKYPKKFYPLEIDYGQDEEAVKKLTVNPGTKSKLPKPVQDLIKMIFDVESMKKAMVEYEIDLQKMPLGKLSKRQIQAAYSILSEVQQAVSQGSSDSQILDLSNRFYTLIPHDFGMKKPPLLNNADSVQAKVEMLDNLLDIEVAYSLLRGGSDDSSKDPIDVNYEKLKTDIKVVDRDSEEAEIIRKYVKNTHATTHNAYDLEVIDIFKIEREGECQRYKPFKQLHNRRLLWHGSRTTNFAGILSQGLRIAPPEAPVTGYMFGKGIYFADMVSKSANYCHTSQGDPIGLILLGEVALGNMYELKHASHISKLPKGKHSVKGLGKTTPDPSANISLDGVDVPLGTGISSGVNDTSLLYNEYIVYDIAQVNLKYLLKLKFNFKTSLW

Compound	IC50
CCc1cc(-c2ccc(S(=O)(=O)NCC(c3cccnc3)N3CCOCC3)s2)c(C)[nH]c1=O (stereo not shown) [Example 72, 5-[5-Ethyl-2-methyl-6-oxo-1,6-dihydropyridin-3-yl]thiophene-2-sulfonic acid 2-(morpholin-4-yl)-2-(pyridin-3-yl)ethylamide dihydrochloride]	1.2 µM
CCc1cc(-c2ccc(CN3CCC(N4CCCC4)CC3)s2)c(C)[nH]c1=O [Example 160, 3-Ethyl-6-methyl-5-[5-(4-pyrrolidin-1-ylpiperidin-1-ylmethyl)-thiophen-2-yl]1-1H-pyridin-2-one dihydrochloride]	1.7 µM
CCc1cc(-c2ccc(S(=O)(=O)NCC(O)c3ccccc3)s2)c(C)[nH]c1=O (stereo not shown) [Example 114, 5-(5-Ethyl-2-methyl-6-oxo-1,6-dihydropyridin-3-yl)thiophene-2-sulfonic acid (2-hydroxy-2-phenylethyl)amide]	0.37 µM
CCc1cc(-c2ccc(S(=O)(=O)NCC3CCCO3)s2)c(C)[nH]c1=O (stereo not shown) [Example 112, 5-(5-Ethyl-2-methyl-6-oxo-1,6-dihydropyridin-3-yl)thiophene-2-sulfonic acid (tetrahydrofuran-2-ylmethyl)amide]	1.2 µM
CCc1cc(-c2ccc(CNC3CC3)s2)c(C)[nH]c1=O [Example 142, 5-(5-Cyclopropylaminomethyl-thiophen-2-yl)-3-ethyl-6-methyl-1H-pyridin-2-one hydrochloride]	2.1 µM
CCc1cc(-c2ccc(CNC3CCN(CC4CCCCC4)CC3)s2)c(C)[nH]c1=O [Example 132, 5-{5-[(1-Cyclohexylmethyl-piperidin-4-ylamino)-methyl]thiophen-2-yl}-3-ethyl-6-methyl-1H-pyridin-2-one dihydrochloride]	1.3 µM
CCc1cc(-c2ccc(CNCc3cccc(Cl)c3)s2)c(C)[nH]c1=O [Example 164, 5-{5-[(3-Chlorobenzylamino)methyl]thiophen-2-y}]-3-ethyl-6-methyl-1H-pyridin-2-one hydrochloride]	0.69 µM
CCc1cc(-c2ccc(CN3CCC(Cc4ccccc4)CC3)s2)c(C)[nH]c1=O [Example 183, 5-[5-(4-Benzylpiperidin-1-ylmethyl)thiophen-2-yl]-3-ethyl-6-methyl-1H-pyridin-2-one hydrochloride]	2.4 µM
CCc1cc(-c2ccc(S(=O)(=O)N3CCN(Cc4ccccc4)CC3)s2)c(C)[nH]c1=O [Example 100, 5-[5-(4-Benzylpiperazine-1-sulfonyl)thiophen-2-yl]-3-ethyl-6-methyl-1H-pyridin-2-one hydrochloride]	2.2 µM
CCc1cc(-c2ccc(CNCCN3CCCC3)s2)c(C)[nH]c1=O [Example 154, 3-Ethyl-6-methyl-5-{5-{[(2-pyrrolidin-1-ylethylamino)-methyl]thiophen-2-yl)-1H-pyridin-2-one dihydrochloride]	0.53 µM
CCc1cc(-c2ccc(CN3CCC(OC)C3)s2)c(C)[nH]c1=O (stereo not shown) [Example 174, 3-Ethyl-5-{5-[(3-methoxypyrrolidin-1-ylmethyl)(thiophen-2-yl)-6-methyl-1H-pyridin-2-one hydrochloride]	1.3 µM
CCc1cc(-c2ccc(S(=O)(=O)NCCC3CCCN3C)s2)c(C)[nH]c1=O (stereo not shown) [Example 36, 5-(5-Ethyl-2-methyl-6-oxo-1,6-dihydropyridin-3-yl)thiophene-2-sulfonic Acid [2-(1-methylpyrrolidin-2-yl)ethyl]amide hydrochloride]	3.7 µM
CCc1cc(-c2ccc(CN3CCCC3)s2)c(C)[nH]c1=O [Example 171, 3-Ethyl-6-methyl-5-(5-pyrrolidin-1-ylmethylthiophen-2-yl)-1H-pyridin-2-one hydrochloride]	0.48 µM
CCc1cc(-c2ccc(S(=O)(=O)NCCc3cccnc3)o2)c(C)[nH]c1=O [Example 48, 5-(5-Ethyl-2-methyl-6-oxo-1,6-dihydropyridin-3-yl)furan-2-sulfonic acid (2-pyridin-3-yl)ethylamide hydrochloride]	0.36 µM
CCc1cc(-c2ccc(S(=O)(=O)N3CCN(CCN4CCCCC4)CC3)s2)c(C)[nH]c1=O [Example 57, 3-Ethyl-6-methyl-5-{5-[4-(2-piperidin-1-yl)ethylpiperizine-1-sulfonyl]thiophen-2-yl}-1H-pyridin-2-one dihydrochloride]	5.7 µM
CCc1cc(-c2ccc(S(=O)(=O)N3CCN(Cc4ccncc4)CC3)s2)c(C)[nH]c1=O [Example 58, 3-Ethyl-6-methyl-5-[5-(4-pyridin-4-yl)methylpiperizine-1-sulfonyl]thiophen-2-yl}1H-pyridin-2-one dihydrochloride]	2.3 µM
CCc1cc(-c2ccc(S(=O)(=O)NCC(C)O)s2)c(C)[nH]c1=O (stereo not shown) [Example 113, 5-(5-Ethyl-2-methyl-6-oxo-1,6-dihydropyridin-3-yl)thiophene-2-sulfonic acid (2-hydroxypropyl)amide]	0.9 µM
CCc1cc(-c2ccc(CN3CCC(F)C3)s2)c(C)[nH]c1=O (stereo not shown) [Example 173, 5-{5-[(3-Fluoropyrrolidin-1-ylmethyl)(thiophen-2-yl)-3-ethyl-6-methyl-1H-pyridin-2-one hydrochloride]	0.22 µM
CCc1cc(-c2ccc(S(=O)(=O)NC3CCN(CC4CC4)CC3)s2)c(C)[nH]c1=O [Example 74, 5-[5-Ethyl-2-methyl-6-oxo-1,6-dihydropyridin-3-yl]thiophene-2-sulfonic acid (1-cyclopropylmethylpiperidin-4-yl)amide hydrochloride]	0.36 µM
CCc1cc(-c2ccc(CNc3cc(C(=O)OC)n(C)c3)s2)c(C)[nH]c1=O [Example 130, 4-{[5-(5-Ethyl-2-methyl-6-oxo-1,6-dihydro-pyridin-3-yl)-thiophen-2-ylmethyl]-amino}-1-methyl-1H-pyrrole-2-carboxylic acid methyl ester dihydrochloride]	1.2 µM
CCc1cc(-c2ccc(CN3CCC(=O)CC3)s2)c(C)[nH]c1=O [Example 150, 3-Ethyl-6-methyl-5-[5-(4-oxo-piperidin-1-ylmethy)-thiophen-2-yl]-1H-pyridin-2-one hydrochloride]	1.3 µM
CCc1cc(-c2ccc(CNC3CCc4ccccc4C3)s2)c(C)[nH]c1=O (stereo not shown) [Example 134, 3-Ethyl-6-methyl-5-{5-[(1,2,3,4-tetrahydro-naphthalen-2-ylamino)-methyl]thiophen-2-yl}-1H-pyridin-2-one hydrochloride]	0.8 µM
CCc1cc(-c2ccc(S(=O)(=O)NCCN3CCOCC3)s2)c(C)[nH]c1=O [Example 38, 5-(5-Ethyl-2-methyl-6-oxo-1,6-dihydropyridin-3-yl)thiophene-2-sulfonic acid (2-morpholin-4-yl)ethylamide hydrochloride]	0.77 µM
CCOC(=O)N1CCN(S(=O)(=O)c2ccc(-c3cc(CC)c(=O)[nH]c3C)s2)CC1 [Example 89, 4-[5-(5-Ethyl-2-methyl-6-oxo-1,6-dihydropyridin-3-yl)thiophene-2-sulfonyl]piperazine-1-carboxylic acid ethyl ester]	10.8 µM
CCc1cc(-c2ccc(CNC(=O)CN(C)C)s2)c(C)[nH]c1=O [Example 177, 2-Dimethylamino-N-[5-(5-ethyl-2-methyl-6-oxo-1,6-dihydropyridin-3-yl)thiophen-2-ylmethyl]acetamide hydrochloride]	0.49 µM
CCc1cc(-c2ccc(S(=O)(=O)N3CCN(CCc4ccccn4)CC3)s2)c(C)[nH]c1=O [Example 60, 3-Ethyl-6-methyl-5-{5-[4-(2-pyridin-2-yl)ethylpiperazine-1-sulfonyl]thiophen-2-yl}-1H-pyridin-2-one dihydrochloride]	1.7 µM
CCc1cc(-c2ccc(CNCCOC)s2)c(C)[nH]c1=O [Example 138, 3-Ethyl-5-{5-[(2-methoxyethylamino)-methyl]thiophen-2-yl}-6-methyl-1H-pyridin-2-one hydrochloride]	0.63 µM
CCc1cc(-c2ccc(S(=O)(=O)N3CCCN(C)CC3)o2)c(C)[nH]c1=O [Example 52, 3-Ethyl-6-methyl-5-[5-(4-methyl-1,4-diazepane-1-sulfonyl)furan-2-yl]-1H-pyridin-2-one hydrochloride]	0.38 µM
